From patent US8859502B2, “Therapy for MLL-rearranged leukemia” (Celgene Corporation, priority 2010, dated 2014)

How the values were obtained:
[1] = test system: RS4;11 cell line; assay: Proto-oncogene mRNA expression by quantitative real-time PCR after exposure to HDAC inhibitors, RS4;11; assay type: cell-based, human; conditions: RS4;11, mRNA by quantitative real-time PCR
Protocol: (§1) FIGS. 8A, 8B, 8C, 8D, 8E, 8F and 8G show relative proto-oncogene mRNA expression after exposure to HDAC inhibitors in SEM cell line. FIGS. 8AA, 8BB, 8CC, 8DD, 8EE, 8FF and 8GG show relative proto-oncogene mRNA expression after exposure to HDAC inhibitors in RS4;11 cell line. mRNA expression levels of the proto-oncogenes A. RAN, B. SET, C. […] For RUNX1, PARK7, DIAPH1 and HOXA9 data after 24 hours exposure are presented as well (hatch fill). Expression levels in SEM or RS4;11 were set to 100%.
(§2) Total RNA was reverse transcribed and the obtained cDNA was used to quantify mRNA expression by using quantitative real-time PCR analysis as described in Stam et al., Haematologica 92(11):1565-1568, 2007). […] Per experiment, samples were analyzed in duplicate and all experiments were conducted twice. […]
(§3) To explore the mechanism of action of HDAC inhibitors on induced leukemic cell death in MLL-rearranged ALL, the t(4;11)-positive ALL cell lines SEM and RS4;11 were exposed to various concentrations of TSA, SAHA, VPA, MS-275 and romidepsin for 6, 24 or 48 hours. During these exposures, cell viability was monitored by trypan blue exclusion (FIG. 7). Quantitative real-time PCR was used to determine the mRNA expression levels of MYC, SET, RUNXI, RAN, HOXA9, DIAPHI and PARK7 in the cell lines SEM and RS4;11 during exposure to the different HDAC inhibitors. […]

[2] = test system: SEM cell line; assay: Proto-oncogene mRNA expression by quantitative real-time PCR after exposure to HDAC inhibitors, SEM; assay type: cell-based, human
Protocol: as §1, §2, §3

[3] = test system: healthy hematopoietic bone marrow cells
[4] = test system: t(4;11)-positive ALL cells; assay type: cell-based, human; conditions: for therapeutic index and specificity towards t(4;11)-positive ALL cells: SEM, RS4;11, MLL-AF4 patient cells versus normal bone marrows, FIG. 6
From the text: VPA, D. romidepsin, E. MS-275. Error bars represent standard errors of the mean (SEM).

Row | Compound | expression of the selected proto-oncogenes [1] | expression of the selected proto-oncogenes [2] | effect on healthy hematopoietic bone marrow cells [3] | in vitro cytotoxicity on the leukemic cell population [4] | therapeutic index and specificity towards t(4;11)-positive ALL cells [4]
1 | O=C(CCCCCCC(=O)Nc1ccccc1)NO [Vorinostat] | consistently repressed most of the selected proto-oncogenes | consistently repressed most of the selected proto-oncogenes | – | – | –
2 | CC(/C=C/C(=O)NO)=C\[C@@H](C)C(=O)c1ccc(N(C)C)cc1 [trichostatin A] | consistently repressed most of the selected proto-oncogenes | consistently repressed most of the selected proto-oncogenes | harmless for healthy hematopoietic bone marrow cells | consistent eradication of the entire leukemic cell population | high therapeutic index and a preferred specificity towards targeting t(4;11)-positive ALL cells
3 | C/C=C1\NC(=O)[C@H]2CSSCC/C=C/[C@H](CC(=O)N[C@H](C(C)C)C(=O)N2)OC(=O)[C@H](C(C)C)NC1=O [romidepsin, (1S,4S,7Z,10S,16E,21R)-7-ethylidene-4,21-bis(1-methylethyl)-2-oxa-12,13-dithia-5,8,20,23-tetrazabicyclo[8.7.6]tricos-16-ene-3,6,9,19,22-pentone] | – | – | – | – | high therapeutic index and a preferred specificity towards targeting t(4;11)-positive ALL cells
4 | Nc1ccccc1NC(=O)c1ccc(CNC(=O)OCc2cccnc2)cc1 [MS-275] | – | – | – | – | high therapeutic index and a preferred specificity towards targeting t(4;11)-positive ALL cells
